Test results from patent publication US11266616B2, “Compositions and methods for inhibiting kinase activity” (BRANDEIS UNIVERSITY, priority 2016, dated 2022).
Entries after “also recorded” stand apart in the source; their conditions may differ.

Legend:
HeLa cells [1] = experiment: HeLa cell viability with PS48; type: cell-based, human; conditions: FIG. 39
HeLa cells [2] = experiment: Cell imaging of synchronized HeLa cells treated with PS48 (Aurora A localization, mitotic progression); type: cell-based, human
Text: FIG. 30 is a schematic showing a summary of a protocol used for cell synchronization experiments described herein to visualize effects of PS48 on TPX2 and Aurora A interaction in vivo.
The physiological importance of the Aurora A-TPX2 interaction was then investigated through experiments using PS48 to disrupt the Aurora A-TPX2 interaction in vivo. As described herein, during the transition to mitosis, Aurora A kinase is known to localize to the centrosomes and the spindle, with levels and activity of Aurora A kinase peaking during this point. TPX2 activates Aurora A kinase and targets Aurora A kinase to the spindle during mitosis. Thus, to observe effects of disruption of the Aurora A-TPX2 interaction on the biological in vivo activities of Aurora A kinase, cells in the experiment needed to be synchronized. The live cell imaging experiments to monitor Aurora A kinase and TPX2 in vivo interaction herein were performed using HeLa cells; however, HEK293 cells may also be used (FIGS. 33-35).
To monitor mitotic progression over time with fine resolution, in addition to staining DNA, phosphorylated histone H3 (“H3_P”) was also stained to monitor levels of H3_P in cells during live cell imaging (FIG. 31). Phosphorylation of Ser10 of histone H3 is considered to be a temporal marker of mitotic progression. […]

[3] = Stability of PS48 at very high concentrations; type: physicochemical
[4] = target: T1, ATP-binding site of Aurora A kinase (Homo sapiens, UniProt O14965); experiment: TNP-ATP fluorescence titration of dephosphorylated Aurora A kinase with or without PS48; conditions: FIGS. 24-26
T1 construct: Codon-optimized Aurora A^122-403 in pET28a and untagged λPP in T7-7 plasmid were co-transformed in BL21(DE3) cells; inferred from pET28a and the NiNTA column) (cleaved yes); made in house; host or cells: E. coli BL21(DE3), co-expressed with lambda protein phosphatase
T1 sequence (O14965 122-403): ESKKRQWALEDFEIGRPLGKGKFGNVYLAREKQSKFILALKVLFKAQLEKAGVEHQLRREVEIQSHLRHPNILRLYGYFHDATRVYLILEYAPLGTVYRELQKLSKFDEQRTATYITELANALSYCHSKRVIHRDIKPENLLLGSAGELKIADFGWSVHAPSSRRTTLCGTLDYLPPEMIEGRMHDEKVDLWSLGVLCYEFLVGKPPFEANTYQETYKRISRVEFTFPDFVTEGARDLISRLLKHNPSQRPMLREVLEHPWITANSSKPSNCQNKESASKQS
Procedure: TNP-ATP is excited at a wavelength of 479 nm and fluoresces at 500-600 nm. FIG. 26B is a plot showing an emission spectrum of TNP-ATP. FIG. 26C is a plot showing fluorescence spectroscopy of dephosphorylated Aurora A kinase incubated with varying amounts of TNP-ATP. FIG. 26D is a plot showing fluorescence spectroscopy of dephosphorylated Aurora A kinase and PS48 incubated with varying amounts of TNP-ATP. FIG. 26E is a plot showing fluorescence intensities measured during titration of TNP-ATP in the Aurora A kinase and PS48 sample and Aurora A kinase only sample. The dissociation constant of TNP-ATP binding to Aurora A kinase in the absence and presence of PS48 is shown at the bottom of FIG. 26E.

O=C(O)/C=C(/CCc1ccc(Cl)cc1)c1ccccc1 [PS48]
HeLa cell viability (HeLa cells [1]): PS48-dose dependent; also recorded: decreased cell viability | localization of Aurora A to the spindle during mitosis (HeLa cells [2]; HeLa cells treated with PS48, FIGS. 36-37): not observed at the spindles | progression of HeLa cells through mitosis (HeLa cells [2]; presence of PS48 vs DMSO, FIG. 38): prolonged | stability of PS48 [3]: not stable | effect of PS48 on the ATP binding site of Aurora A kinase (TNP-ATP binding) [4]: does not affect binding of TNP-ATP; also recorded: does not bind to the ATP binding site
